Reference: patent US12435044B2, “Pyridazinone herbicides and pyridazinone intermediates used to prepare a herbicide” (FMC Corporation, priority 2018, dated 2025)

Columns and labels:
Type in all cases: in vivo
[1] = test system: E. black nightshade (SOLPT; Solanum ptycanthum); experiment: Test H postemergence, mixtures of Cpd. No. 20 with atrazine or glyphosate
Source text: (§1) This test evaluated the effect of mixtures of Cpd. No. 20 with atrazine or glyphosate on several plant species. Seeds of plant species selected from corn (ZEAMD; Zea mays, cv. ‘Pioneer 1184’), soybean (GLXMA; Glycine max, cv. Pioneer 35T58), giant foxtail (SETFA; Setaria faberi), Surinamgrass (BRADC; Brachiaria decumbens), fall panicum (PANDI; Panicum dichotomiflorum), velvetleaf (ABUTH; Abutilon threophrasti), mare's tail (ERICA; Conyza canadensis), barnyardgrass (ECHCG; Echinochloa crus-galli), large crabgrass (DIGSA; Digitaria sanguinalis), palmer amaranth (AMAPA; Amaranthus palmeri), common waterhemp (AMATU; Amaranthus rudis), E. black nightshade (SOLPT; Solanum ptycanthum), and common ragweed (AMBEL; Ambrosia artemisiifolia) were planted in pots containing Redi-Earth® planting medium (Scotts Company, 14111 Scottslawn Road, Marysville, Ohio 43041) comprising spaghnum peat moss, vermiculite, wetting agent and starter nutrients and treated postemergence using test chemicals formulated in a non-phytotoxic solvent mixture which included a surfactant. Plants ranged in height from 2 to 10 cm and were in the one- to two-leaf stage for the postemergence treatment. Treated plants and untreated controls were maintained in a greenhouse for approximately 14 d, after which time all treated plants were compared to untreated controls and visually evaluated for injury. Plant response ratings, summarized in Tables H1 & H2, are based on a 0 to 100 scale where 0 is no effect and 100 is complete control. A dash (-) response means no test result. Test results are presented as a mean of 4 reps.

[2] = test system: Surinamgrass (BRADC; Brachiaria decumbens); experiment: as above
Source text: as §1

[3] = test system: barnyardgrass (ECHCG; Echinochloa crus-galli); experiment: as above
Source text: as §1

[4] = test system: common ragweed (AMBEL; Ambrosia artemisiifolia); experiment: as above
Source text: as §1

[5] = test system: common waterhemp (AMATU; Amaranthus rudis); experiment: as above
Source text: as §1

[6] = test system: corn (ZEAMD; Zea mays, cv. ‘Pioneer 1184’); experiment: as above
Source text: as §1

[7] = test system: fall panicum (PANDI; Panicum dichotomiflorum); experiment: as above
Source text: as §1

[8] = test system: giant foxtail (SETFA; Setaria faberi); experiment: as above
Source text: as §1

[9] = test system: large crabgrass (DIGSA; Digitaria sanguinalis); experiment: as above
Source text: as §1

[10] = test system: mare's tail (ERICA; Conyza canadensis); experiment: as above
Source text: as §1

[11] = test system: palmer amaranth (AMAPA; Amaranthus palmeri); experiment: as above
Source text: as §1

[12] = test system: soybean (GLXMA; Glycine max, cv. Pioneer 35T58); experiment: as above
Source text: as §1

[13] = test system: velvetleaf (ABUTH; Abutilon threophrasti); experiment: as above
Source text: as §1

[14] = test system: common ragweed (AMBEL; Ambrosia artemisiifolia); experiment: Test K pre-/postemergence, mixtures of Cpd. No. 20 with metribuzin or rimsulfuron
Source text: (§2) This test evaluated the effect of mixtures of Cpd. No. 20 with metribuzin or rimsulfuron on several plant species. Seeds of plant species selected from corn (ZEAMD; Zea mays, cv. ‘Pioneer 1184’), soybean (GLXMA; Glycine max, cv. Pioneer 35T58), giant foxtail (SETFA; Setaria faberi), palmer amaranth (AMAPA; Amaranthus palmeri), common waterhemp (AMATU; Amaranthus rudis), mare's tail (ERICA; Conyza canadensis), and common ragweed (AMBEL; Ambrosia artemisiifolia) were planted in pots containing Tama Silt Loam soil and treated preemergence with a directed soil spray using test chemicals formulated in a non-phytotoxic solvent mixture which included a surfactant.
(§3) At the same time, plants selected from these crop and weed species were planted in pots containing Redi-Earth® planting medium (Scotts Company, 14111 Scottslawn Road, Marysville, Ohio 43041) comprising spaghnum peat moss, vermiculite, wetting agent and starter nutrients and treated postemergence with test chemicals formulated in the same manner. Plants ranged in height from 2 to 10 cm and were in the one- to two-leaf stage for the postemergence treatment. Treated plants and untreated controls were maintained in a greenhouse for approximately 14-21 d, after which time all treated plants were compared to untreated controls and visually evaluated for injury. Plant response ratings, summarized in Tables K1 to K4, are based on a 0 to 100 scale where 0 is no effect and 100 is complete control. A dash (-) response means no test result. Test results are presented as a mean of 4 reps.

[15] = test system: common waterhemp (AMATU; Amaranthus rudis); experiment: as above
Source text: as §2, §3

[16] = test system: corn (ZEAMD; Zea mays, cv. ‘Pioneer 1184’); experiment: as above
Source text: as §2, §3

[17] = test system: giant foxtail (SETFA; Setaria faberi); experiment: as above
Source text: as §2, §3

[18] = test system: mare's tail (ERICA; Conyza canadensis); experiment: as above
Source text: as §2, §3

[19] = test system: palmer amaranth (AMAPA; Amaranthus palmeri); experiment: as above
Source text: as §2, §3

[20] = test system: soybean (GLXMA; Glycine max, cv. Pioneer 35T58); experiment: as above
Source text: as §2, §3

CCNc1nc(Cl)nc(NC(C)C)n1 [Atrazine, atrazine]
Observed result (plant response rating), SOLPT ([1]; applied alone at 125 g a.i./ha): 28 | Observed result (plant response rating), SOLPT ([1]; applied alone at 250 g a.i./ha): 64 | Observed result (plant response rating), BRADC ([2]; applied alone at 125 g a.i./ha): 0 | Observed result (plant response rating), BRADC ([2]; applied alone at 250 g a.i./ha): 0 | Observed result (plant response rating), ECHCG ([3]; applied alone at 125 g a.i./ha): 96 | Observed result (plant response rating), ECHCG ([3]; applied alone at 250 g a.i./ha): 100 | Observed result (plant response rating), AMBEL ([4]; applied alone at 125 g a.i./ha): 48 | Observed result (plant response rating), AMBEL ([4]; applied alone at 250 g a.i./ha): 80 | Observed result (plant response rating), AMATU ([5]; applied alone at 125 g a.i./ha): 30 | Observed result (plant response rating), AMATU ([5]; applied alone at 250 g a.i./ha): 39 | Observed result (plant response rating), ZEAMD ([6]; applied alone at 125 g a.i./ha): 0 | Observed result (plant response rating), ZEAMD ([6]; applied alone at 250 g a.i./ha): 0 | Observed result (plant response rating), PANDI ([7]; applied alone at 125 g a.i./ha): 0 | Observed result (plant response rating), PANDI ([7]; applied alone at 250 g a.i./ha): 0 | Observed result (plant response rating), SETFA ([8]; applied alone at 125 g a.i./ha): 0 | Observed result (plant response rating), SETFA ([8]; applied alone at 250 g a.i./ha): 0 | Observed result (plant response rating), DIGSA ([9]; applied alone at 125 g a.i./ha): 0 | Observed result (plant response rating), DIGSA ([9]; applied alone at 250 g a.i./ha): 0 | Observed result (plant response rating), ERICA ([10]; applied alone at 125 g a.i./ha): 23 | Observed result (plant response rating), ERICA ([10]; applied alone at 250 g a.i./ha): 83 | Observed result (plant response rating), AMAPA ([11]; applied alone at 125 g a.i./ha): 76 | Observed result (plant response rating), AMAPA ([11]; applied alone at 250 g a.i./ha): 74 | Observed result (plant response rating), GLXMA ([12]; applied alone at 125 g a.i./ha): 15 | Observed result (plant response rating), GLXMA ([12]; applied alone at 250 g a.i./ha): 33 | Observed result (plant response rating), ABUTH ([13]; applied alone at 125 g a.i./ha): 0 | Observed result (plant response rating), ABUTH ([13]; applied alone at 250 g a.i./ha): 10

CCS(=O)(=O)c1cccnc1S(=O)(=O)NC(=O)Nc1nc(OC)cc(OC)n1 [Rimsulfuron, rimsulfuron, reference compound]
AMBEL plant response rating, 0 to 100 scale ([14]; postemergence, 8 g a.i./ha): 40 | AMBEL plant response rating, 0 to 100 scale ([14]; postemergence, 16 g a.i./ha): 60 | AMBEL plant response rating, 0 to 100 scale ([14]; preemergence, 8 g a.i./ha): 0 | AMBEL plant response rating, 0 to 100 scale ([14]; preemergence, 16 g a.i./ha): 43 | AMATU plant response rating, 0 to 100 scale ([15]; postemergence, 8 g a.i./ha): 75 | AMATU plant response rating, 0 to 100 scale ([15]; postemergence, 16 g a.i./ha): 77 | AMATU plant response rating, 0 to 100 scale ([15]; preemergence, 8 g a.i./ha): 51 | AMATU plant response rating, 0 to 100 scale ([15]; preemergence, 16 g a.i./ha): 73 | ZEAMD plant response rating, 0 to 100 scale ([16]; postemergence, 8 g a.i./ha): 0 | ZEAMD plant response rating, 0 to 100 scale ([16]; postemergence, 16 g a.i./ha): 10 | ZEAMD plant response rating, 0 to 100 scale ([16]; preemergence, 8 g a.i./ha): 0 | ZEAMD plant response rating, 0 to 100 scale ([16]; preemergence, 16 g a.i./ha): 0 | SETFA plant response rating, 0 to 100 scale ([17]; postemergence, 8 g a.i./ha): 80 | SETFA plant response rating, 0 to 100 scale ([17]; postemergence, 16 g a.i./ha): 97 | SETFA plant response rating, 0 to 100 scale ([17]; preemergence, 8 g a.i./ha): 50 | SETFA plant response rating, 0 to 100 scale ([17]; preemergence, 16 g a.i./ha): 73 | ERICA plant response rating, 0 to 100 scale ([18]; postemergence, 8 g a.i./ha): 50 | ERICA plant response rating, 0 to 100 scale ([18]; postemergence, 16 g a.i./ha): 70 | ERICA plant response rating, 0 to 100 scale ([18]; preemergence, 8 g a.i./ha): 95 | ERICA plant response rating, 0 to 100 scale ([18]; preemergence, 16 g a.i./ha): 98 | AMAPA plant response rating, 0 to 100 scale ([19]; postemergence, 8 g a.i./ha): 60 | AMAPA plant response rating, 0 to 100 scale ([19]; postemergence, 16 g a.i./ha): 60 | AMAPA plant response rating, 0 to 100 scale ([19]; preemergence, 8 g a.i./ha): 33 | AMAPA plant response rating, 0 to 100 scale ([19]; preemergence, 16 g a.i./ha): 40 | GLXMA plant response rating, 0 to 100 scale ([20]; postemergence, 8 g a.i./ha): 75 | GLXMA plant response rating, 0 to 100 scale ([20]; postemergence, 16 g a.i./ha): 93 | GLXMA plant response rating, 0 to 100 scale ([20]; preemergence, 8 g a.i./ha): 0 | GLXMA plant response rating, 0 to 100 scale ([20]; preemergence, 16 g a.i./ha): 0
